The source of these data is PMC11585513, “A novel ACE inhibitory peptide from Pelodiscus sinensis Wiegmann meat water-soluble protein hydrolysate” (Amino Acids, 2024).

A word on the IC50: it is the midpoint of a concentration-inhibition curve.

Read-outs that look alike come from different tables or passages of the source. Peptide text beside a SMILES is read from it.

The test system of assay [1] is ACE. As to conditions: cited from earlier work. As to the method:
The kinetics of IEWEF inhibition of ACE were determined by Lineweaver–Burk plot (Fig. 1). […] We speculate that IEWEF interacts with the non-active domain of ACE to form an enzyme-inhibitor complex even in the presence of substrate (Xie et al. [2022]). A number of non-competitive ACE inhibitory peptides have been reported in recent years, including GVSLPEW, GYGGVSLPEW, and VGINYW from α-lactalbumin (W ...

Assay [2] deals with T1, ACE (Oryctolagus cuniculus, UniProt P12822).
T1 construct: ACE (1U, derived from rabbit lung, CAS 207386-83-2); purchased Sigma-Aldrich Co. (St. Louis, MO, USA); host or cells: rabbit lung
T1 sequence (P12822 34-1310): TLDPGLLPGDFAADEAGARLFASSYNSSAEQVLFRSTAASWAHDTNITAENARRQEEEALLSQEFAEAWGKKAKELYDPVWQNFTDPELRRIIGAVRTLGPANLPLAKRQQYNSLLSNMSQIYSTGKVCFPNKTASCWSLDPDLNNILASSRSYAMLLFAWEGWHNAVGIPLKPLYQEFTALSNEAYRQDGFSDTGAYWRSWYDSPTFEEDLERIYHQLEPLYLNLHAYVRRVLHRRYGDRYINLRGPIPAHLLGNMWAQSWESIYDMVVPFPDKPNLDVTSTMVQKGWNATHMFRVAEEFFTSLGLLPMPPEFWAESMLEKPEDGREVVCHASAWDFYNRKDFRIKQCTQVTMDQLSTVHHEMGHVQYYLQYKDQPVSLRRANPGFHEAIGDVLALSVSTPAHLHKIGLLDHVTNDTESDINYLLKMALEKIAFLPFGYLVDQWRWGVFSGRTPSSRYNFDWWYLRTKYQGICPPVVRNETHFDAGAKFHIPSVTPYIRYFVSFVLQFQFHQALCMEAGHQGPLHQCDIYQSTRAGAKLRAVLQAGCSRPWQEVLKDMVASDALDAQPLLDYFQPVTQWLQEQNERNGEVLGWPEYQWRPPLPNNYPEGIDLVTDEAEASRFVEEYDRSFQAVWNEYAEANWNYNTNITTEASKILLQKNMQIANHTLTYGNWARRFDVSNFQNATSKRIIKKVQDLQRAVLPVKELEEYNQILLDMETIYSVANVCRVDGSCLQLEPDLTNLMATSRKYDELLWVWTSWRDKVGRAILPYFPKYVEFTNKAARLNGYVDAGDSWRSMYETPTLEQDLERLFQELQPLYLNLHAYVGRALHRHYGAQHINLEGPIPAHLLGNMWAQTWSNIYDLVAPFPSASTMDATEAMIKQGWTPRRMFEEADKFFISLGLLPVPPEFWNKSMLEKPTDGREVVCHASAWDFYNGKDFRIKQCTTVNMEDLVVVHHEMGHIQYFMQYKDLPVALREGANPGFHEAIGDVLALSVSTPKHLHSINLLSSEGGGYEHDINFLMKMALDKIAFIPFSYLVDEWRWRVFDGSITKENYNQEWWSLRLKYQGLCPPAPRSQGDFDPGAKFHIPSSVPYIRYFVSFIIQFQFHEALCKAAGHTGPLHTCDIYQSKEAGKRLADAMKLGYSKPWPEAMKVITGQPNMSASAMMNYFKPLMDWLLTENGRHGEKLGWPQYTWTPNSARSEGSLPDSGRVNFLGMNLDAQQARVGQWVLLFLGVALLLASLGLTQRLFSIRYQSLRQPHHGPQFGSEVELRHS
In words: In vitro assay of ACE inhibitory activity (HHL substrate, HPLC of hippuric acid). The class given is biochemical, rabbit. The following applies: for inhibition at 86.57 µM: 86.57 μmol/L; for inhibition at 86.57 µM / inhibition at 173.13 µM / inhibition at 346.26 µM / inhibition at 692.52 µM / inhibition at 2770.08 µM: read-out: ACE inhibitory activities (%); for inhibition at 173.13 µM: 173.13 μmol/L; for inhibition at 346.26 µM: 346.26 μmol/L; for inhibition at 692.52 µM: 692.52 μmol/L; for inhibition at 2770.08 µM: 2770.08 μmol/L. As to the method: WSPM prepared in our previous work (Sun et al. [2022]) and stored at − 20 °C after freeze-drying was used for this study. ACE (1U, derived from rabbit lung, CAS […]), Hippuryl-L-histidyl-L-leucine (HHL, CAS […]), and hippuric acid (HA, CAS 495-69-2) were obtained from Sigma-Aldrich Co. (St. Louis, MO, USA). The reagents used for HPLC analysis were all HPLC grade, and all other reagents used were analytical grade. The amounts of each protein were quantified using the BCA Protein Assay Kit (Bio-Rad, USA). All the protein samples were packed separately and stored at − 80 °C.
In vitro assay of ACE inhibitory activities of the selected peptides ACE inhibitory activity was evaluated in vitro according to previous methods with some modifications (Liao et al. [2018]; Xie et al. [2022]). All of the assays were carried out in 0.1 mol/L sodium borate buffer (containing 0.3 mol/L NaCl at pH 8.3). For each peptide of interest, 40 µL ACE solution (100 mU/mL) was pre-incubated with the peptide (60 µL) at 37 °C for 10 min. Next, 40 µL HHL solution (5.40 mmol/L) was added to the solution at 37 °C, and the reaction was allowed to proceed for 15 min at 37 °C. Finally, 60 µL 1 mol/L HCl was added to terminate the reaction. A borate buffer only control processed using the above procedure was also included for use as a blank. To quantify the amount of HA (hippuric acid) generated, 20 µL of reaction solution (pre-filtered using a 0.45 µm microporous membrane) was analyzed by HPLC (Waters e2695, Milford, USA) on a C18 column (150 × 4.6 mm, 5 µm; ThermoFisher Scientific, USA). The run conditions were as follows: mobile phase, methanol/water/phosphoric acid solution (15:84.9:0.1, V/V/V); flow rate, 1.0 mL/min; UV detection wavelength, 228 nm. All experiments were conducted in triplicate. ACE inhibitory activity was calculated according to the following equation:1 ACE inhibitory activity\%=B-A/B×100\% where A represents the peak area of HA in the sample, and B represents the peak area of HA in the blank.

Assay [3] deals with ACE. The following applies: at 0.5 mg/mL; ref Girgih et al. [2014]; cited from earlier work. As to the method:
This is within the range (0.3 ~ 1000.0 µM) known to reduce blood pressure (Chen et al. [2022]). There are several reported ACE inhibitory peptides similar to IEWEF in their amino acid compositions, including IE, EW, IEW, EF, LEF and IEEAF. The peptides IE and EW are both ACE inhibitory peptides isolated from milk hydrolysates, although their IC50 values have not been reported thus far (van Platerink et al. [2008]).

The mark [4] stands for this setting: from Carapax Trionycis, ref Liao et al. [2018].
The mark [5] stands for this setting: from α-lactalbumin, ref Wei et al. [2022].

In the case of PPLLFAAL, the Inhibition mode result in the assay on ACE [1] (from Takifugu flavidus, ref Su et al. [2021]) is recorded as “non-competitive”.
For `CC[C@H](C)[C@H](N)C(=O)N[C@@H](CCC(=O)O)C(=O)N[C@@H](Cc1c[nH]c2ccccc12)C(=O)N[C@@H](CCC(=O)O)C(=O)N[C@@H](Cc1ccccc1)C(=O)O` [IEWEF, Ile-Glu-Trp-Glu-Phe] (H-IEWEF-OH), at ACE [2] (replicate 1), the inhibition at 86.57 µM turned out to be 58.4%, the inhibition at 173.13 µM is 65.3%, the inhibition at 346.26 µM was determined as 72.2% and the inhibition at 692.52 µM stood at 66.8%. For the same compound, at ACE [2] (replicate 1), the inhibition at 2770.08 µM amounted to 91.2%. Besides, at ACE [2] (replicate 2), the inhibition at 86.57 µM was 57.8%, the inhibition at 173.13 µM was 59.3%, the inhibition at 346.26 µM was found to be 69.3% and the inhibition at 692.52 µM turned out to be 74.4%. Besides, the inhibition at 2770.08 µM at ACE [2] (replicate 2) amounted to 91%. In addition, on ACE [2] (replicate 3), the inhibition at 86.57 µM was 57.9%, the inhibition at 173.13 µM amounted to 65%, the inhibition at 346.26 µM was found to be 70.5% and the inhibition at 692.52 µM came to 74.5%. Moreover, the inhibition at 2770.08 µM at ACE [2] (replicate 3) was 91%. For the same compound, the concentration for half-maximal inhibition (IC50) on ACE [2] (ACE 100 mU/mL from rabbit lung, HHL 5.40 mmol/L, 0.1 mol/L sodium borate buffer with 0.3 mol/L NaCl pH 8.3, 10 min pre-incubation, 15 min at 37 °C, HPLC-UV 228 nm, mean ± SD, n = 3, read-out: IC50 value against ACE) came to 41.3 µM.
KRER: the Inhibition mode entry in the assay on ACE [1] (setting [4]) is “non-competitive”.
Consider IEEAF, for which the “Inhibitory activity against ACE” value in the assay on ACE [3] is “around 40%”.
Turning to WGAP, in the assay with ACE [1] (from rabbit meat, ref Chen et al. [2021]), the Inhibition mode result is “non-competitive”.
As for GYGGVSLPEW, in the assay on ACE [1] (setting [5]), the Inhibition mode result is given as “non-competitive”.
Consider KIGSRSRFEVT, for which the Inhibition mode entry with ACE [1] (from the shiitake mushroom, ref Paisansak et al. [2021]) was “non-competitive”.
For the compound GVSLPEW, the Inhibition mode result in the assay on ACE [1] (setting [5]) is on record as “non-competitive”.
With LLYQEPLGPVR, the Inhibition mode entry with ACE [1] (from casein hydrolysate, ref Liu et al. [2020]) is “non-competitive”.
As for KHMFK, in the assay on ACE [1] (setting [4]), the Inhibition mode entry is reported as “non-competitive”.
VGINYW: the Inhibition mode result in the assay on ACE [1] (setting [5]) is “non-competitive”.
